Assay results taken from paper PMC5848165 (Toxins, 2018).
Residues, ends and D or L forms follow the SMILES beside them.

Tests used:
[1] = system: chimera #1, Nav1.5 (Nav1.7-DII-S3-S4); assay: Whole-cell patch clamp, chimera #1 in HEK293 cells; type: cell-based, rat Nav1.5 / human Nav1.7; conditions: −10 mV from −80 mV
From the text: Many animal toxins alter activation or inactivation of sodium channels by binding to the S3–S4 regions of channels, which are probably the external linkers or voltage sensors of sodium channels. α-Scorpion toxins slow down fast-inactivation of sodium channels by binding to the extracellular linker loop of DIVS3-S4 (neurotoxin site 3). Meanwhile, β-scorpion toxins that interact with DIIS3-S4 linker enhance the activation of sodium channels by trapping DII voltage sensor in an activated state. As Nav1.5 channel is resistant to the inhibition of JZTX-34, we investigated the binding site of JZTX-34 to Nav1.7 by constructing chimeric channels between Nav1.5 and Nav1.7. […]
The HEK293T cells were maintained in standard culture conditions (5% CO2 and 37 °C). […] After culturing for 36–72 h, cells with obvious green fluorescence were selected for sodium currents recordings the internal solution for sodium currents recording that contained (in mM) 140 CsF, 5 NaCl, 10 HEPES, 3 Na2-ATP, and 10 EGTA. […]
Sodium currents were recorded from DRG, HEK293, and ND cells by the whole-cell patch-clamp technique at 25 °C. […] Experiments date were acquired from whole-cell Axon 700B patch clamp amplifier (Molecular Devices, Sunnyvale, CA, USA) and analyzed by the program Clampfit10.0 (Molecular Devices, Sunnyvale, CA, USA) and Sigmaplot. […]

[2] = system: TTX-R sodium channels from rat DRG neurons; assay: Whole-cell patch clamp, TTX-R sodium currents in rat DRG neurons; type: cell-based, rat (Sprague-Dawley); conditions: 1 µM synthetic JZTX-34; 100 nM TTX in external solution; −10 mV from −80 mV
[3] = system: TTX-R sodium channels from rat DRG neurons; conditions: ref [18]; cited from earlier work
From the text: In this study, the analgesic effect and mechanism of JZTX-34 on pain were investigated.

## CC(C)C[C@@H]1NC(=O)[C@H](Cc2c[nH]c3ccccc23)NC(=O)[C@H](CCC(=O)O)NC(=O)[C@H](CCCNC(=N)N)NC(=O)[C@@H](NC(=O)[C@H](C)N)CSSC[C@@H]2NC(=O)[C@@H]3CSSC[C@@H](C(=O)N[C@H](C(=O)N[C@@H](Cc4c[nH]c5ccccc45)C(=O)N[C@@H](CC(=O)O)C(=O)N[C@@H](Cc4c[nH]c5ccccc45)C(=O)N[C@H](C(=O)N[C@H](C(=O)O)C(C)C)[C@@H](C)O)C(C)C)NC(=O)[C@H](Cc4c[nH]cn4)NC(=O)[C@H](Cc4ccc(O)cc4)NC(=O)[C@@H]4CCCN4C(=O)[C@H](Cc4c[nH]c5ccccc45)NC(=O)[C@H](CCCCN)NC(=O)[C@H](CCCCN)NC(=O)[C@H](CCCNC(=N)N)NC(=O)[C@H](CSSC[C@H](NC(=O)CNC(=O)CNC1=O)C(=O)N[C@@H](CO)C(=O)N[C@@H](CCCCN)C(=O)N[C@@H](CC(=O)O)C(=O)N[C@@H](C)C(=O)N[C@@H](CC(=O)O)C(=O)N3)NC(=O)[C@H](CCC(=O)O)NC(=O)[C@H](CC(C)C)NC(=O)[C@H](Cc1c[nH]cn1)NC(=O)[C@H](C)NC2=O [JZTX-34, Jingzhaotoxin-34] (HELM PEPTIDE1{A.C.R.E.W.L.G.G.C.S.K.D.A.D.C.C.A.H.L.E.C.R.K.K.W.P.Y.H.C.V.W.D.W.T.V}$PEPTIDE1,PEPTIDE1,2:R3-16:R3|PEPTIDE1,PEPTIDE1,9:R3-21:R3|PEPTIDE1,PEPTIDE1,15:R3-29:R3$$$V2.0; N-terminus and C-terminus assumed)
[1]; 1 µM
  inhibition of chimera #1 currents: 47.6 ± 3.6%
[1]; 10 µM
  inhibition of chimera #1 currents: 79.5 ± 2.8%
[2]
  effect on TTX-R sodium currents: had no effect on TTX-R sodium currents
[3]
  effect on TTX-R sodium currents (previous work): no inhibition on tetrodotoxin-resistant (TTX-R) sodium currents
